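Growth conditions: 96-well plates. Treatment: test compound, 48 hours, 5 concentrations. Analysis: linear interpolation between bracketing concentrations; unreached endpoints set to highest concentration. Here, GI50 denotes the concentration required for 50% inhibition of growth. TGI marks complete inhibition of growth.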
Columns and labels:
Test in all cases: DTP human tumour cell line panel, 48 h
SK-MEL-5 melanoma = test system: SK-MEL-5 melanoma
ACHN renal = test system: ACHN renal
HOP-92 NSCLC = test system: HOP-92 NSCLC
786-0 renal = test system: 786-0 renal
HCT-116 colon = test system: HCT-116 colon
SF-268 CNS = test system: SF-268 CNS
SF-295 CNS = test system: SF-295 CNS
SNB-75 CNS = test system: SNB-75 CNS

Row | Structure (SMILES) | TGI (SK-MEL-5 melanoma) [µM] | TGI (ACHN renal) [µM] | TGI (HOP-92 NSCLC) [µM] | TGI (786-0 renal) [µM] | TGI (HCT-116 colon) [µM] | TGI (SF-268 CNS) [µM] | TGI (SF-295 CNS) [µM] | TGI (SNB-75 CNS) [µM] | GI50 (SK-MEL-5 melanoma) [µM] | GI50 (ACHN renal) [µM] | GI50 (SF-295 CNS) [µM] | GI50 (HOP-92 NSCLC) [µM] | GI50 (786-0 renal) [µM] | GI50 (HCT-116 colon) [µM] | GI50 (SF-268 CNS) [µM] | GI50 (SNB-75 CNS) [µM]
1 | CCOC(=O)/C(=C/c1ccc(C(=O)OC)cc1)N(CC)CC | > 100 | > 100 | > 100 | > 100 | > 100 | > 100 |  |  |  |  |  |  |  |  |  | 
2 | CCOP(=O)(OCC)C1CCCOC1=O (configuration not stated) | > 100 | > 100 |  | > 100 | > 100 | > 100 | > 100 | > 100 |  |  |  |  |  |  |  | 
3 | C[CH2][Ge]([CH2]C)([CH2]C)[O]C(=O)C(OC(C)=O)c1ccccc1 (configuration not stated) | > 100 | > 100 | > 100 | > 100 | > 100 | > 100 | > 100 | > 100 | 71.6 | > 100 | > 100 | 57.9 | > 100 | > 100 | > 100 | > 100
4 | CC(=O)c1c2c(cc3c1CC1(C3)Cc3cc4c(c(C(C)=O)c3C1)CCC4)CCC2 | > 100 | > 100 | > 100 | > 100 | > 100 | > 100 | > 100 | > 100 |  |  |  |  |  |  |  | 
5 | COC(=O)N/N=C(\C)c1c(O)cc(C)oc1=O | > 100 | > 100 | > 100 | > 100 | > 100 | > 100 | > 100 | > 100 |  |  |  |  |  |  |  | 
6 | Cc1cccc(C)c1NC(=O)C1=NC(=S)NC(c2ccccc2)C1c1nc2ccccc2s1 (configuration not stated) | > 100 | > 100 | > 100 | > 100 | > 100 | > 100 | > 100 | > 100 |  |  |  |  |  |  |  | 
7 | COC(=O)C1Cc2c(n(C)c3ccccc23)C(CCC(=O)O)N1Cc1ccccc1 (configuration not stated) | 79.5 | 81.8 | 60.2 | > 100 | 43.2 | 69.9 | 93.9 | 89.7 |  |  |  |  |  |  |  | 
8 | CN(c1ccc(C(=O)c2ccc(N(C)S(C)(=O)=O)cc2)cc1)S(C)(=O)=O | 78.4 | > 100 | > 100 | > 100 | > 100 | > 100 | > 100 | > 100 |  |  |  |  |  |  |  | 
9 | C[N+](C)(C)CC(=O)N/N=C(/C(=O)Nc1ccc(Br)cc1)C1C(=O)NC(=O)NC1=O | > 100 | > 100 |  | > 100 | > 100 | > 100 | > 100 | > 100 |  |  |  |  |  |  |  | 
10 | CN(C)C(=N/O)/C(=N\O)N(C)C |  | > 100 | > 100 | > 100 | > 100 | > 100 | > 100 | > 100 |  |  |  |  |  |  |  | 
11 | N#C/C(=C/c1ccc2c(c1)OCO2)C(=O)c1ccccc1 | > 100 | > 100 |  | > 100 | > 100 | > 100 | > 100 | > 100 |  |  |  |  |  |  |  | 
12 | CC(=O)[O-].Cn1ccnc1CNCc1nccn1C.[Cu+2].[O-][Cl+3]([O-])([O-])[O-] | > 100 |  |  | > 100 | > 100 | > 100 | > 100 | > 100 | > 100 |  | 96.9 |  | > 100 | > 100 | > 100 | > 100
13 | c1ccc2c3c([nH]c2c1)[C@H]1C2CCCCN2CN1CC3 (some centres not stated) | > 100 | > 100 | > 100 | > 100 | > 100 | > 100 | > 100 | > 100 |  |  |  |  |  |  |  | 
14 | COCN1COCN=C1NC#N | > 100 | > 100 | > 100 | > 100 | > 100 | > 100 | > 100 | > 100 |  |  |  |  |  |  |  | 
15 | CN(C)CCNC(=O)c1cccc2cc3c(Cl)cccc3nc12 |  | 2.35 | 4.28 | > 20.2 | 2.97 |  |  | 8.37 |  |  |  |  |  |  |  | 
16 | COc1ccc2c3c([nH]c2c1[N+](=O)[O-])C(C)N(Cc1ccccc1)CC3 (configuration not stated) |  | > 100 |  | > 100 | 24 | 5.83 |  |  |  |  |  |  |  |  |  | 
17 | CCOC(=O)C(=O)CC1=Nc2ccccc2SC(c2cccc(C)c2)C1 (configuration not stated) | 36.2 | 30.3 | 32 | 32.4 | 27.8 | 32.2 |  | 38.7 |  |  |  |  |  |  |  | 
18 | N/C(=N\N=C\c1ccc(C(F)(F)F)cc1)NO |  | 25.6 | 58.8 | 37.7 | > 100 | 61 | > 100 | > 100 |  |  |  |  |  |  |  | 
19 | O=C([CH-]C(=O)c1ccccc1)c1ccccc1.[CH-]1CCCCC1.[CH-]1CCCCC1.[CH-]1CCCCC1.[Sn+4] | 19.1 | 31.9 |  | 15.1 | 19.9 | 24.1 | 22.1 | 21.3 | 6.58 | 13.8 | 8.1 |  | 4.25 | 6.3 | 7.64 | 7.09
20 | Cc1cc2c(C)n(Cc3ccccc3Cl)nc2c(C(=O)O)c1C |  | > 100 | > 100 | > 100 | > 100 | > 100 | > 100 | > 100 |  |  |  |  |  |  |  | 
